Data published in PMC7930471, “Targeting HIF2α-ARNT hetero-dimerisation as a novel therapeutic strategy for pulmonary arterial hypertension” (The European Respiratory Journal, 2021).

Tests used:
rat HIF2α = target: T1, rat HIF2α (Rattus norvegicus, UniProt Q9JHS1); assay: isothermal titration calorimetry (iTC200), purified PAS-B domain titrated into PT2567; assay type: binding
T1 construct: gene Epas1; PAS-B domain (rat HIF2α-B, made from the human HIF2α-B expression vector by mutating T262L, I265V and I326V)
T1 sequence (Q9JHS1 240-350 limits assumed): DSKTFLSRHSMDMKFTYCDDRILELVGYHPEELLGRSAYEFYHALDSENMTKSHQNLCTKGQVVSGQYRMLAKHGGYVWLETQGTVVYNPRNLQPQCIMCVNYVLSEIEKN

HIF2α = target: T2, HIF2α (Homo sapiens, UniProt Q99814); assay: as above; assay type: binding
T2 construct: gene EPAS1; PAS-B domain (human HIF2α-B)
T2 sequence (Q99814 240-350 limits assumed): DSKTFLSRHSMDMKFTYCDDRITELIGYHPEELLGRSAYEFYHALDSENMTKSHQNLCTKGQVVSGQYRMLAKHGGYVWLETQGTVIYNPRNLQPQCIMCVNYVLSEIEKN

PT2567
Kd (rat HIF2α): 29 nM
Kd (HIF2α): 30 nM
